Experiments:
[1] = Thermal stability of salt; format: physicochemical
Excerpt: It was produced in a crystalline form that was easy to dry, as the residual solvent content of the obtained sample was low. The particle size distribution and crystal habits found were acceptable.

[2] = Solubility in pure water at 25° C. with PXRD of solid residues; format: physicochemical
Experimental: Using a similar strategy as described above, these salts were prepared by evaporation from a solution of free base and acid in a solvent (e.g., methanol-dichloromethane 1:1, ethyl acetate-dichloromethane 1:2, isopropanol, and the like). If necessary, an amorphous salt produced in this way was crystallized by stirring the amorphous material in an appropriate solvent (e.g., ethyl acetate, acetonitrile, and the like).

## Cn1cc(-c2cn(-c3ccc(OC(F)(F)F)cc3)c(=O)c3ncn(C)c23)cn1.O=S(=O)(O)O [mono-sulfate crystalline]
[1]
  thermal stability: good thermal stability
[2]; Table 5: free base and crystalline salt forms
  Solubility (24 hours): 1540 µg/mL
[2]; pH of solubility sample, pure water, 25° C., 24 hours
  pH (24 hrs): 1.2
[2]; pH of solubility sample, pure water, 25° C., one hour
  pH (1 hr): 1.1
[2]; pure water, 25° C., 24 hours equilibration
  S 24 hrs: 1.54 mg/mL
[2]; pure water, 25° C., one hour
  S 1 hr: 1.73 mg/mL

Source: patent publication US20260167638A1, “PHARMACEUTICAL COMPOUND, SALTS THEREOF, FORMULATIONS THEREOF, AND METHODS OF MAKING AND USING SAME” (Genentech, Inc., priority 2018, published 2026)
